The text below walks through data of a melting point compilation (Tetko et al.; mined from patent text by program, amines drawn as free bases though some values may be those of a salt).

As to `Cc1oc2cccc(OCC#N)c2c1C`, the melting point was in the range of 50 to 52 °C.
`COC(=O)C1=Cc2cc(-c3ccc(Cl)cc3)ccc2S(=O)(=O)CC1` registered a melting point of 168 to 170 °C.
In the case of `N#Cc1ccc(-c2cnc(Cl)o2)cc1`, the melting point amounted to 144 °C.
In the case of `O=C1CCC(c2cc3c(s2)CC(NS(=O)(=O)c2ccccc2)CC3)=NN1` (stereo not given), the melting point was in the range of 230 to 232 °C.
Under `CCc1ccc(NC(=O)c2sccc2S(=O)(=O)Nc2onc(C)c2Br)cc1` stands 187 to 190 °C; under `O=S(=O)(CCCCl)NC1CC1`, 48 to 49.5 °C.
Under `CCn1c(=O)c2cnn3c2n(c1=O)CC=C3c1cccc(C(F)(F)F)c1` stands 161 to 163 °C; under `CN(C)c1nc(NCc2ccco2)nc(Nc2cccc(C(F)(F)F)c2)n1`, 81 to 83 °C.
In turn, `CN1Cc2c(CO)ncn2-c2ccccc2C1=O` had a melting point of 219 to 221 °C.
Under `CCOC(=O)Cn1c(-c2ccccn2)nc2cccnc21` stands 109 to 111 °C; under `CCCc1ncnc(O)c1Cc1ccc(-c2ccccc2C#N)cc1`, 158 °C.
Under `S=C1c2cccnc2N(c2ccccc2)C2=NCCN12` stands 293 to 296 °C; under `COC(=O)c1cc2c(Cl)cc(F)c(-n3c(=O)cc(C(F)(F)F)n(C)c3=O)c2o1`, 194 to 196 °C.
Take `CC(C)Oc1ccc(C=O)cc1OCCN1C(=O)c2ccccc2C1=O`: the melting point stood at 110 °C.
Under `COc1ccc(C(O)CCN2CC=C(c3ccc(Cl)cc3)CC2)c(OC)c1` (stereo not given) stands 112 to 114 °C; under `CS(=O)(=O)c1ccc(-n2nc(C(F)(F)F)cc2-c2ccc(-c3cscn3)cc2)cc1`, 168 to 170 °C; under `COC(C)(C)CN1CCC(CNC(=O)c2cc(Cl)c(N)n3cc(C)nc23)CC1`, 211 °C.
Under `COCCNS(=O)(=O)c1ccc(Nc2nc(OCC3CCCCC3)c3nc[nH]c3n2)cc1` stands 120 to 122 °C.
In the case of `CCOc1ccc2nc(SC)c(C=O)cc2c1`, the melting point is 124 to 125 °C.
On to `COCc1nc2c(OC)c3c(=O)n(C)c(COC)nc3c(OC)c2c(=O)n1C`, for which the melting point was 223 to 224 °C.
`CC(C)NCC(O)COc1cccnc1[N+](=O)[O-]` (stereo not given) gave a melting point of 99 to 101 °C.
In the case of `O=C1O[C@@H](Cn2ccnn2)CN1c1ccc(-c2ccc(C3=NO[C@H](Cn4ccnc4)C3)nc2)c(F)c1`, the melting point was 239 to 242 °C.
The compound `CC(C)(C)[Si](C)(C)OCCn1cc([N+](=O)[O-])cn1` came in with a melting point of 63 to 64 °C.
Take `CC1(c2cc(-c3cccc(C=C4SC(N5CCCC5)=NC4=O)c3)ccc2O)CCCCC1`: the melting point lay within 278 to 280 °C.
As to `COC(=O)C(=Cc1cccc([N+](=O)[O-])c1)C(=O)OC`, the melting point was in the range of 78 to 80 °C.
Take `CNC(=O)C(=NOCF)c1ccccc1COc1ccccc1C`: the melting point lay within 86 to 88 °C.
For `OC1(c2cccn2Cc2ccccc2F)CCN(CCCc2noc3cc(F)ccc23)CC1`, the melting point was in the range of 100 to 104 °C.
Under `CC(=O)Nc1nnc2c3c(c(N4CCOCC4)nn12)CCCC3` stands 147 to 149 °C; under `CC1(c2ccc(CNC(=O)CCl)cc2)Cc2cc(OCC(=O)O)c(Cl)c(Cl)c2C1=O` (stereo not given), 138 to 141 °C.
The compound `CC(C)(C)Nc1nc2cc(Cl)c(Cl)cc2[nH]1` yielded a melting point of 219 to 221 °C.
`CC(CC1=C(O)C(=O)c2ccccc2C1=O)C(F)(F)F` (stereo not given): the melting point stood at 168 °C.
`CN(C)C1CNc2c(cc(Br)cc2[N+](=O)[O-])C1` (stereo not given) showed a melting point of 88 to 91 °C.
Under `Cc1ncc(CSC(=O)c2cccc(C(=O)SCc3cnc(C)c(O)c3CO)c2)c(CO)c1O` stands 185 to 187 °C.
`Nc1sc(-c2ccc(Cl)cc2)c(CN(C2CCCCC2)C2CCCCC2)c1C(=O)c1ccc(Cl)cc1`: the melting point lay in the range of 200 to 204 °C.
In the case of `CC1CCN(C2C3=CC(OC3=O)C3C(CC4(C)OC4C2OC(=O)c2ccccc2)OC(=O)C3C)CC1` (stereo not given), the melting point came to 234 °C.
